Patent US20130209433A1, “MODULATION OF AMINO ACID METABOLISM IN THE HYPOTHALAMUS” (Albert Einstein College of Medicine of Yeshiva University, priority 2005, published 2013)

Key:
[1] = tested on: conscious rats; assay: Intrahypothalamic (mediobasal hypothalamus) infusion with pancreatic clamp; assay type: in vivo, rat; details: for glucose production: IH infusion into mediobasal hypothalamus; for rate of glucose infusion required to maintain basal glucose levels: IH infusion 0.33 μl/h (L-glutamate 1 mM; KIC 3 mM bilaterally)
Protocol: Thus, we next tested whether the intra-hypothalamic ([…]) administration of glutamate could recapitulate the effects of […] proline on glucose production.
We next aimed to localize the central effects of KIC on liver glucose production. Toward this end, we administered 3 mM KIC (0.33 μl/h) bilaterally within the parenchyma of the medial hypothalamus. The total amount of KIC given during these experiments was 15 fold lower than that used in the ICV experiments. The correct placement of the hypothalamic cannulae was verified via the infusion of radiolabeled KIC as previously reported.

[2] = tested on: Sprague Dawley rats; assay: ICV (third cerebral ventricle) infusion combined with systemic pancreatic-insulin clamp; assay type: in vivo, rat; details: for rate of glucose infusion (GIR) required to prevent hypoglycemia / decrease in endogenous glucose production / rate of glucose uptake: ICV infusion; for rate of glucose infusion (GIR) required to prevent hypoglycemia / decrease in endogenous glucose production: 3 mM solution at 5 μl/h for 6 hr; for rate of glucose infusion (GIR) required to prevent hypoglycemia: basal insulin clamp; for decrease in endogenous glucose production / rate of glucose uptake: pancreatic-insulin clamp; for rate of glucose uptake: 3 mM solution at 5 μl/h
From the text: To test this hypothesis we asked whether a primary increase in hypothalamic proline is per se sufficient to inhibit glucose production, and whether this effect requires metabolism of lactate to pyruvate. Experiments were designed to examine the effect of central administration of proline on whole body insulin action. In order to selectively increase the central availability of proline, we infused this amino acid via a chronic cannula implanted in the third cerebral ventricle (ICV) of conscious rats.
Proline (PRO, 3 mM solution at 5 μl/h) or vehicle (CON) was infused ICV for 6 hr in chronically catheterized Sprague Dawley rats. Insulin action was assessed by a combination of ICV infusions with systemic pancreatic-insulin clamp studies in order to control for the circulating levels of glucoregulatory hormones.
We next examined whether the effect of central proline on glucose production requires the inter-conversion between lactate and pyruvate catalyzed by LDH. In light of the ‘astrocyte-neuron lactate shuttle hypothesis’ (Pellerin and Magistretti, 2004), we proposed that central administration of proline leads to increased glutamate synthesis results in the increased formation of lactate (increased glycolysis) in astro-glia (Pellerin and Magistretti, 2004). Based on our previous work, the increased availability of lactate would in turn be expected to induce robust changes in liver glucose fluxes. Consistent with this hypothesis, impeding the conversion of glucose to lactate in astrocytes or of lactate to pyruvate in neurons within the hypothalamus should inhibit the potent metabolic effects of central proline on liver glucose fluxes. Oxamate (OXA) is a competitive inhibitor of LDH (Brooks et al., 1999). Thus, to test this hypothesis we next co-infused ICV oxamate (50 mM; 3 μl bolus; 5 μl/h) with proline in order to examine whether lactate metabolism is required for the effects of proline and presumably of other gluconeogenic amino acids on glucose production.
The entry of ketogenic amino acids into the oxidative pathway requires their conversion to the respective keto acid a reaction that is catalyzed by various amino acid aminotransferases. The keto acid product generated by leucine aminotransferase from leucine is α-ketoisocaproic acid (KIC) that can then be converted to acetyl-CoA by the consecutive action of five enzymes. The rate-limiting step in this process is the oxidative decarboxylation of KIC catalyzed by the branched-chain ketoacid dehydrogenase complex or BCKDC. This enzyme is inhibited by phosphorylation by a BCKDC kinase. Importantly, BCKDC can be robustly activated by α-chloroisocaproic acid (α-CIC) via inhibition of the BCKDC kinase (Harris et al., 1982). To test whether the central metabolism of ketogenic amino acids such as leucine could also lead to inhibition of glucose production, we next asked whether a primary increase in hypothalamic KIC is per se sufficient to inhibit glucose production, and whether this effect also requires metabolism of lactate to pyruvate and activation of ATP-dependent potassium channels (KATP). Experiments were designed to examine the effect of central administration of KIC on whole body insulin action.

## CC(C)CC(Cl)C(=O)O (stereo not drawn) [α-CIC, α-chloroisocaproic acid]
[1]
  glucose production: decrease endogenous glucose production
[1]; intrahypothalamic infusion, conscious rats
  blood glucose levels: lower blood glucose levels

## CC(C)CC(=O)C(=O)O [KIC, α-ketoisocaproic acid]
[1]; IH 3 mM KIC, 0.33 μl/h bilaterally, pancreatic clamp
  glucose utilization (GU): not altered
[1]; pancreatic clamp
  rate of glucose infusion required to maintain basal glucose levels: increase
[1]
  glucose production: suppression
[2]
  rate of glucose infusion (GIR) required to prevent hypoglycemia: 5.2 ± 0.7 mg/kg/min
  decrease in endogenous glucose production: 40±4%
  rate of glucose uptake: not significantly affected

## COc1ccc(Cl)cc1C(=O)NCCc1ccc(S(=O)(=O)NC(=O)NC2CCCCC2)cc1 [glibenclamide, reference compound]
[2]; ICV infusion alone, pancreatic clamp
  effect per se on rate of glucose infusion and liver glucose fluxes: no effects
[2]; co-infused ICV with KIC, oxamate 50 mM, 3 μl bolus, 5 μl/h, glibenclamide 100 μM, pancreatic clamp
  effect on the effects of ICV KIC on rate of glucose infusion and liver glucose fluxes: negated

## N[C@@H](CCC(=O)O)C(=O)O [L-glutamate]
[1]; IH 1 mM, 0.33 μl/h
  circulating glucose after IH administration: 136 ± 2 mg/dL
[1]; pancreatic clamp
  rate of glucose infusion required to maintain basal glucose levels: significantly increased
[1]
  glucose production: marked suppression
[1]; basal value, before IH L-glutamate 1 mM, 0.33 μl/h
  circulating glucose before IH administration: 159 ± 3 mg/dL

## O=C(O)[C@@H]1CCCN1 [proline]
[2]
  rate of glucose infusion (GIR) required to prevent hypoglycemia: 5.7 ± 0.9 mg/kg/min
  decrease in endogenous glucose production: 36±2%
  rate of glucose uptake: not significantly affected
